Experimental data from PubChem BioAssay AID2060886 (Molecular Pharmacology Branch, DTP, NCI, 2025).

Tested on: 653999-131-R-J2-PDC complex spheroids, growth inhibition
Experiment: Anticancer human tumor 653999-131-R-J2-PDC patient-derived lung adenocarcinoma cell line growth inhibition [RAS]
Conditions: for viability, T/C: stronger effect = lower value
Outline: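 Tumour cells grown as complex spheroids with HUVEC endothelial cells and mesenchymal stem cells, treated with RAS pathway inhibitor combinations. Each agent spans half-log steps from near clinical Cmax, or 10 microM where Cmax is unknown.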

[1] = curve of first compound, second compound 0.0316 µM
[2] = curve of first compound, second compound 0.1 µM
[3] = curve of first compound, second compound 0.316 µM
[4] = curve of first compound, second compound 1 µM
[5] = second compound 0.0316 µM, first compound 0.0316 µM
[6] = second compound 0.0316 µM, first compound 0.1 µM
[7] = second compound 0.0316 µM, first compound 0.316 µM
[8] = second compound 0.0316 µM, first compound 1 µM
[9] = second compound 0.1 µM, first compound 0.0316 µM
[10] = second compound 0.1 µM, first compound 0.1 µM
[11] = second compound 0.1 µM, first compound 0.316 µM
[12] = second compound 0.1 µM, first compound 1 µM
[13] = second compound 0.316 µM, first compound 0.0316 µM
[14] = second compound 0.316 µM, first compound 0.1 µM
[15] = second compound 0.316 µM, first compound 0.316 µM
[16] = second compound 0.316 µM, first compound 1 µM
[17] = second compound 1 µM, first compound 0.0316 µM
[18] = second compound 1 µM, first compound 0.1 µM
[19] = second compound 1 µM, first compound 0.316 µM
[20] = second compound 1 µM, first compound 1 µM
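Further: spheroids exposed to the agents for seven days before the readout.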

## CCN1CCN(Cc2ccc(Nc3ncc(F)c(-c4cc(F)c5nc(C)n(C(C)C)c5c4)n3)nc2)CC1 + C=CC(=O)N1CCN(c2nc(OCC3CCCN3C)nc3c(F)c(-c4nc(N)cc(C)c4C(F)(F)F)c(Cl)cc23)C(C)C1
Curve of first compound, second compound 0.00316 µM
  IC50: > 1 µM
Curve of first compound, second compound 0.01 µM
  IC50: > 1 µM
[1]
  IC50: > 1 µM
[2]
  IC50: > 1 µM
[3]
  IC50: > 1 µM
[4]
  IC50: > 1 µM
Second compound 0.00316 µM, first compound 0.00316 µM
  viability, T/C: 90.4%
Second compound 0.00316 µM, first compound 0.01 µM
  viability, T/C: 79.5%
Second compound 0.00316 µM, first compound 0.0316 µM
  viability, T/C: 68.9%
Second compound 0.00316 µM, first compound 0.1 µM
  viability, T/C: 61.7%
Second compound 0.00316 µM, first compound 0.316 µM
  viability, T/C: 80%
Second compound 0.00316 µM, first compound 1 µM
  viability, T/C: 75.4%
Second compound 0.01 µM, first compound 0.00316 µM
  viability, T/C: 93.4%
Second compound 0.01 µM, first compound 0.01 µM
  viability, T/C: 84.1%
Second compound 0.01 µM, first compound 0.0316 µM
  viability, T/C: 69.3%
Second compound 0.01 µM, first compound 0.1 µM
  viability, T/C: 66.9%
Second compound 0.01 µM, first compound 0.316 µM
  viability, T/C: 67.7%
Second compound 0.01 µM, first compound 1 µM
  viability, T/C: 69.7%
Second compound 0.0316 µM, first compound 0.00316 µM
  viability, T/C: 106%
Second compound 0.0316 µM, first compound 0.01 µM
  viability, T/C: 87.1%
[5]
  viability, T/C: 75.8%
[6]
  viability, T/C: 65.3%
[7]
  viability, T/C: 68.1%
[8]
  viability, T/C: 81.7%
Second compound 0.1 µM, first compound 0.00316 µM
  viability, T/C: 111%
Second compound 0.1 µM, first compound 0.01 µM
  viability, T/C: 84%
[9]
  viability, T/C: 67.6%
[10]
  viability, T/C: 73.7%
[11]
  viability, T/C: 63%
[12]
  viability, T/C: 67.1%
Second compound 0.316 µM, first compound 0.00316 µM
  viability, T/C: 84.8%
Second compound 0.316 µM, first compound 0.01 µM
  viability, T/C: 98.6%
[13]
  viability, T/C: 78.2%
[14]
  viability, T/C: 69.4%
[15]
  viability, T/C: 70.7%
[16]
  viability, T/C: 70.5%
Second compound 1 µM, first compound 0.00316 µM
  viability, T/C: 94%
Second compound 1 µM, first compound 0.01 µM
  viability, T/C: 81.3%
[17]
  viability, T/C: 63.4%
[18]
  viability, T/C: 69.7%
[19]
  viability, T/C: 77.6%
[20]
  viability, T/C: 102%

## CC1(O)CCCC1n1c(=O)c(C(F)F)cc2cnc(NC3CCN(S(C)(=O)=O)CC3)nc21 (stereo unspecified)
Compound 0.0316 µM
  viability, T/C: 89.5% [middle of 4 runs]
Compound 0.1 µM
  viability, T/C: 69.3% [middle of 4 runs]
Compound 0.316 µM
  viability, T/C: 65.3% [middle of 4 runs]
Compound 1 µM
  viability, T/C: 66.8% [middle of 4 runs]
Compound 3.16 µM
  viability, T/C: 73.8% [middle of 4 runs]
Compound 10 µM
  viability, T/C: 35.3% [middle of 4 runs]
Curve of compound
  IC50: 6.68 µM [middle of 4 runs]

## CC(C)NCC(C(=O)N1CCN(c2ncnc3c2C(C)CC3O)CC1)c1ccc(Cl)cc1 (stereo unspecified) + C#Cc1c(F)ccc2cc(O)cc(-c3ncc4c(N5CC6CCC(C5)N6)nc(OCC56CCCN5CC(F)C6)nc4c3F)c12
[1]
  IC50: 1.22 µM
[2]
  IC50: 0.593 µM
[3]
  IC50: 0.19 µM
[4]
  IC50: 0.0845 µM
Curve of first compound, second compound 3.16 µM
  IC50: < 0.0316 µM
Curve of first compound, second compound 10 µM
  IC50: < 0.0316 µM
[5]
  viability, T/C: 109%
[6]
  viability, T/C: 84.2%
[7]
  viability, T/C: 72%
[8]
  viability, T/C: 53.6%
Second compound 0.0316 µM, first compound 3.16 µM
  viability, T/C: 35%
Second compound 0.0316 µM, first compound 10 µM
  viability, T/C: 28.9%
[9]
  viability, T/C: 97.6%
[10]
  viability, T/C: 55.7%
[11]
  viability, T/C: 70.4%
[12]
  viability, T/C: 43.6%
Second compound 0.1 µM, first compound 3.16 µM
  viability, T/C: 37.6%
Second compound 0.1 µM, first compound 10 µM
  viability, T/C: 32.1%
[13]
  viability, T/C: 56.5%
[14]
  viability, T/C: 62.6%
[15]
  viability, T/C: 38.8%
[16]
  viability, T/C: 38.9%
Second compound 0.316 µM, first compound 3.16 µM
  viability, T/C: 26.2%
Second compound 0.316 µM, first compound 10 µM
  viability, T/C: 20.5%
[17]
  viability, T/C: 64.7%
[18]
  viability, T/C: 40.8%
[19]
  viability, T/C: 45%
[20]
  viability, T/C: 21%
Second compound 1 µM, first compound 3.16 µM
  viability, T/C: 19.4%
Second compound 1 µM, first compound 10 µM
  viability, T/C: 14%
Second compound 3.16 µM, first compound 0.0316 µM
  viability, T/C: 36.9%
Second compound 3.16 µM, first compound 0.1 µM
  viability, T/C: 43.9%
Second compound 3.16 µM, first compound 0.316 µM
  viability, T/C: 27.9%
Second compound 3.16 µM, first compound 1 µM
  viability, T/C: 19%
Second compound 3.16 µM, first compound 3.16 µM
  viability, T/C: 12.7%
Second compound 3.16 µM, first compound 10 µM
  viability, T/C: 9.87%
Second compound 10 µM, first compound 0.0316 µM
  viability, T/C: 23.3%
Second compound 10 µM, first compound 0.1 µM
  viability, T/C: 23.3%
Second compound 10 µM, first compound 0.316 µM
  viability, T/C: 22.8%
Second compound 10 µM, first compound 1 µM
  viability, T/C: 14.1%
Second compound 10 µM, first compound 3.16 µM
  viability, T/C: 9.37%
Second compound 10 µM, first compound 10 µM
  viability, T/C: 5.49%
